Data set [1] concerns human islets. Nature of the data set: Human islets under cytokine stress, transmission electron microscopy. The class given is cell-based. To be noted: 24 hours. Here is the method:
(§1) Mouse pancreatic islets were isolated as previously described (Yoshihara et al., 2010, Nat. Commun 1:127) with slight modification. Briefly, 0.5 mg/ml collagenase P (Roche REF 1213873001, diluted in HBSS buffer, GIBCO, 14170-112) was injected through the common bile duct, and the perfused pancreas dissected and incubated at 37° C. for 21 min. Digested exocrine cells and intact islets were separated via centrifugation (900×g for 15 min) over Histopaque-1077 (Sigma, H8889), and intact islets were manually selected. Human islets were provided by the Integrated Islets Distribution Program (see details below).
Islets in suspension were pelleted in 2% low melting point agarose and subsequently fixed in 2.5% glutaraldehyde with 2% paraformaldehyde in 0.15M cacodylate buffer containing 2 mM calcium chloride, pH 7.4, for one hour at 4° C. The pellet was trimmed down to contain the minimal amount of agarose possible, washed in buffer, and secondarily fixed in 1% osmium tetroxide/0.3% potassium ferrocyanide in buffer. Subsequently, the pellet was washed in water and en bloc stained with 2% uranyl acetate followed by a graded dehydration in ethanol (35%, 50%, 70%, 90%, 100%, 100%). […]

For data set [2], the system named is h-IAPP mouse islets. The data set can be described thus: Islets from aged h-IAPP transgenic mice treated ex vivo (qPCR). The class given is cell-based. To be noted: 72 hr ex vivo, 15 month old mice. On the procedure: as §1, with “Samples were run in triplicate and expression was normalized to the levels of the housekeeping controls Rplp0 (36b4) for human and mouse. Samples were analyzed by qPCR, using SYBR Green dye (Bio-rad). Statistical comparisons were made using Student's t test. Error bars are mean±SEM. Primers used are shown below: Mouse” for “Mouse”
A general note: Quantitative PCR measures a nucleic acid by following its amplification.

The nature of data set [3]: In vivo pharmacokinetic study of iBRD9 (plasma, LC-MS). To be noted: FIG. 12J, n=3. On the procedure: An internal standard of d4-succinate was added to all samples prior to analysis. […] of methanol containing 100 pmol of d4-succinate was added to 50 uL plasma samples and vortexed for 1 min. The samples were then centrifuged at 17.000× g for 10 min at 4° C. After drying the supernatant via SpeedVac, the extract was dissolved in H2O ([…]) and […] was subjected to liquid chromatography mass spectrometry (LC-MS). Compound i-BRD9 was measured using a TSQ Quantiva mass spectrometer (Thermo) and Dionex Ultimate 3000 (Thermo) fitted with a Gemini C18 HPLC column ([…]; 4.6 mm×50 mm, Phenomenex). LC solvents used were: solvent A, 0.1% formic acid in water; solvent B, 0.1% formic acid in acetonitrile. Separations took place over 16 min with a flow rate of 0.4 mL/min and consisted of the following steps: 5 to 50% solvent B over 9 min, 50 to 80% B over 1 min, 80% B for 1 min, 80 to 5% B over 0.1 min, and 5% B for 5 min. MS analyses were performed using electrospray ionization (ESI) in positive ion mode for i-BRD9 and negative ion mode for d4-succinate. Positive and negative mode source parameters were as follows: spray voltage 3.5 kV, ion transfer tube temperature of 325° C., and a vaporizer temperature of 275° C. Multiple reaction monitoring transitions for target compound and internal standard are shown in (Table 2).

Each structure is given as a SMILES string.

Take `C=C1/C(=C\C=C2/CCC[C@]3(C)[C@@H]([C@H](C)/C=C/[C@@H](O)C4CC4)CC[C@@H]23)C[C@@H](O)C[C@@H]1O` [Cal, calcipotriol]: the “cytokine-induced morphological degeneration (insulin granules, ER)” value in data set [1] is reported as “partially rescues the morphological degeneration”. Further, the “inflammatory and stress markers” value in data set [2] is “reduced”.
For `CCn1cc(-c2cccc(C(F)(F)F)c2)c2sc(C(=N)NC3CCS(=O)(=O)CC3)cc2c1=O` [iBRD9], the “maximum plasma iBRD9 concentration” value in data set [3] is about 750 nM.
